Reference: patent publication EP4741383A1, “COMPOUND AND USE THEREOF AS ANTI-CANCER DRUG” (Tyligand Bioscience (Shanghai) Limited, priority 2023, dated 2025)

Experiments:
B16F10 = assay: CellTiter-Glo cell proliferation inhibition, B16F10; assay type: cell-based; settings: B16-F10; B16F10 (mouse melanoma cell line), 72 hours; read-out: Example IC50 (µM) B16F10
Excerpt: (§1) This experiment used the CellTiter-Glo® Luminescent Cell Viability Assay kit from Promega to evaluate the inhibitory activity of the disclosed compounds on the proliferation of the following cell lines: 4T1 (mouse breast cancer cell line), A20 (mouse B-cell lymphoma cell line), A2780 (human ovarian cancer cell line), AsPC-1 (pancreatic cancer cell line), B16F10 (mouse melanoma cell line), BT549 (human breast cancer cell line), CT26 (mouse colon cancer cell line), EMT6 (mouse breast cancer cell line), HCT116 (colorectal cancer cell line), Jurket (acute leukemia cell line), KP-4 (pancreatic cancer cell line), LL/2 (mouse lung cancer cell line), MCF7 (breast cancer cell line), […] NCI-H358 (lung cancer cell line), NCI-H727 (gastric cancer cell line), NCI-1944 (lung cancer cell line), Pan 04.03 (pancreatic cancer cell line), SK-BR-3 (breast cancer cell line), THP-1 (leukemia cell line), TOV21G (ovarian cancer cell line), U87MG (glioblastoma cell line), and UM-UC-a (bladder cancer cell line). […]
(§2) Cells were cultured according to the instructions provided by the cell supplier (Nanjing Kebai Biotechnology Co., Ltd.). […] Suspension or adherent cells were collected, and cell viability was determined using the trypan blue exclusion method, ensuring that cell viability was above 90%. […]

MCF7 = assay: CellTiter-Glo cell proliferation inhibition, MCF7; assay type: cell-based; settings: Homo sapiens; MCF7 (breast cancer cell line), 72 hours; read-out: Example IC50 (µM) MCF7
Excerpt: as §1, §2

U87MG = assay: CellTiter-Glo cell proliferation inhibition, U87MG; assay type: cell-based; settings: Homo sapiens, U-87 MG; U87MG (glioblastoma cell line), 72 hours; read-out: Example IC50 (µM) U87MG
Excerpt: as §1, §2

CT26 = assay: CellTiter-Glo cell proliferation inhibition, CT26; assay type: cell-based; settings: CT26 (mouse colon cancer cell line), 72 hours; read-out: Example IC50 (µM) CT26
Excerpt: as §1, §2

NCI-H727 = assay: CellTiter-Glo cell proliferation inhibition, NCI-H727; assay type: cell-based; settings: Homo sapiens; […]; read-out: Example IC50 (µM) NCI-H727
Excerpt: as §1, §2

TOV21G = assay: CellTiter-Glo cell proliferation inhibition, TOV21G; assay type: cell-based; settings: Homo sapiens; TOV21G (ovarian cancer cell line), 72 hours; read-out: Example IC50 (µM) TOV21G
Excerpt: as §1, §2

AsPC-1 = assay: CellTiter-Glo cell proliferation inhibition, AsPC-1; assay type: cell-based; settings: Homo sapiens, ASPC1; AsPC-1 (pancreatic cancer cell line), 72 hours; read-out: Example IC50 (µM) AsPC-1
Excerpt: as §1, §2

MKN45 = assay: CellTiter-Glo cell proliferation inhibition, MKN45; assay type: cell-based; settings: MKN-45; MKN45 (mouse B-cell lymphoma cell line), 72 hours; read-out: Example IC50 (µM) MKN45
Excerpt: as §1, §2

LL/2 = assay: CellTiter-Glo cell proliferation inhibition, LL/2; assay type: cell-based; settings: LL/2 (mouse lung cancer cell line), 72 hours; read-out: Example IC50 (µM) LL/2
Excerpt: as §1, §2

Pan 04.03 = assay: CellTiter-Glo cell proliferation inhibition, Pan 04.03; assay type: cell-based; settings: Pan 04.03 (pancreatic cancer cell line), 72 hours; read-out: Example IC50 (µM) Pan 04.03
Excerpt: as §1, §2

UM-UC-a = assay: CellTiter-Glo cell proliferation inhibition, UM-UC-a; assay type: cell-based; settings: UM-UC-a (bladder cancer cell line), 72 hours; read-out: Example IC50 (µM) UM-UC-a
Excerpt: as §1, §2

4T1 = assay: CellTiter-Glo cell proliferation inhibition, 4T1; assay type: cell-based; settings: 4T1 (mouse breast cancer cell line), 72 hours; read-out: Example IC50 (µM) 4T1
Excerpt: as §1, §2

Jurket = assay: CellTiter-Glo cell proliferation inhibition, Jurket; assay type: cell-based; settings: Jurket (acute leukemia cell line), 72 hours; read-out: Example IC50 (µM) Jurket
Excerpt: as §1, §2

BT549 = assay: CellTiter-Glo cell proliferation inhibition, BT549; assay type: cell-based; settings: BT-549; BT549 (human breast cancer cell line), 72 hours; read-out: Example IC50 (µM) BT549
Excerpt: as §1, §2

[1] = J. Med. Chem. 2014, 57, 6594-6609; cited from earlier work

## O=C(Nc1ccc(-c2csc(CO)c2)cc1)C(=O)Nc1ccc(-c2cc3cc(F)c(-c4nnn[nH]4)cc3n2C2CCC2)cc1 [Example 1]
B16F10
  IC50: 0.142 µM
MCF7
  IC50: 0.083 µM
U87MG
  IC50: 0.276 µM
CT26
  IC50: 0.123 µM
NCI-H727
  IC50: 0.225 µM
TOV21G
  IC50: 0.112 µM
AsPC-1
  IC50: 0.121 µM
MKN45
  IC50: 0.326 µM
LL/2
  IC50: 0.207 µM
Pan 04.03
  IC50: 0.34 µM
UM-UC-a
  IC50: 0.193 µM
4T1
  IC50: 0.125 µM
Jurket
  IC50: 0.165 µM
BT549
  IC50: 0.121 µM

## Cn1c(-c2cccc(NC(=O)C(=O)Nc3ccc(-c4ccsc4)cc3)c2)c(I)c2cc(C(=O)O)c(O)cc21 [Example 11a-1, reference compound]
[1]
  oral bioavailability: 0.07%

## O=C(Nc1ccc(-c2cc3cc(F)c(-c4nnn[nH]4)cc3n2C2CCC2)cc1)C(=O)Nc1ccc(N2CCC3(CCC(O)C3)CC2)cc1 (stereo not drawn) [Example 100]
MCF7
  IC50: 0.05 µM
U87MG
  IC50: 0.075 µM
CT26
  IC50: 0.134 µM
TOV21G
  IC50: 0.106 µM
4T1
  IC50: 0.14 µM
BT549
  IC50: 0.047 µM
